For data set [1], the system named is Vero.
In data set [2] the test system is Vero. This is another data set of the same source.
For data set [3], the system named is Vero. The source holds these as a separate data set.
Data set [4] relates to Vero. This is another data set of the same source.
Data set [5] concerns Vero. This is another data set of the same source.
Data set [6] relates to Vero. This is another data set of the same source.
Data set [7] deals with Vero. This is another data set of the same source.
Data set [8] concerns Vero. The source holds these as a separate data set.
For data set [9], the system named is Vero. The source holds these as a separate data set.
For data set [10], the system named is Vero. This is another data set of the same source.
Data set [11] is described as follows: in vitro. The note with it: monkey, Vero 76 cells (ATCC CRL 1587).
Data set [12] can be described thus: in vitro. The note with it: rhesus monkey, LLC-MK2 cells (ATCC CRL 7).
A short description of data set [13]: in vitro. Particulars: rhesus monkey, LLC-MK2 cells (ATCC CRL 7). This is another data set of the same source.
Data set [14] is described as follows: in vitro. The note with it: rhesus monkey, LLC-MK2 cells (ATCC CRL 7). This is another data set of the same source.
A short description of data set [15]: in vitro. The note with it: monkey, Vero 76 cells (ATCC CRL 1587). This is another data set of the same source.
A short description of data set [16]: in vitro. Particulars: rhesus monkey, LLC-MK2 cells (ATCC CRL 7). This is another data set of the same source.
Data set [17] can be described thus: in vitro. The note with it: monkey, Vero 76 cells (ATCC CRL 1587). This is another data set of the same source.
The nature of data set [18]: in vitro. Particulars: rhesus monkey, LLC-MK2 cells (ATCC CRL 7). The source holds these as a separate data set.
Data set [19] in a line: in vitro. Particulars: monkey, Vero 76 cells (ATCC CRL 1587). This is another data set of the same source.
Data set [20] can be described thus: in vitro. Particulars: monkey, Vero 76 cells (ATCC CRL 1587). This is another data set of the same source.

We go through four compounds from ChEMBL document CHEMBL1136368, “Antiviral activity of cyclopentenyl nucleosides against orthopox viruses (Smallpox, monkeypox and cowpox)” (Bioorg Med Chem Lett, 2003).

Each structure is given as a SMILES string. Converted amounts (≈) assume the structure as drawn.

In the case of `Nc1nc(=O)n([C@H]2C=C(CO)[C@H](O)[C@@H]2O)cc1F`, the concentration giving a half-maximal response (EC50) in the data set on Vero [1] was determined as 1.35 µg/mL (≈ 5.25 µM); in the data set with Vero [2] it was 2.05 µg/mL (≈ 7.97 µM); in the data set with Vero [3] it was 2.63 µg/mL (≈ 10.2 µM); in the data set with Vero [4], 1.17 µg/mL (≈ 4.55 µM); with Vero [5], 1.46 µg/mL (≈ 5.68 µM). For the same compound, the 50% inhibitory concentration (IC50) in the data set with Vero [6] was over 100 µg/mL; with Vero [7] it was 100 µg/mL (≈ 389 µM); with Vero [8] it was 39 µg/mL (≈ 152 µM); with Vero [9], 100 µg/mL (≈ 389 µM); with Vero [10], over 100 µg/mL. For the same compound, the selectivity ratio was 86 in the data set “in vitro [11]”; over 196 in “in vitro [12]”; 189 in “in vitro [13]”; 162 in the data set “in vitro [14]”; over 74 in the data set “in vitro [15]”; over 164 in “in vitro [16]”. Further, the selectivity ratio in “in vitro [17]” is 49; in “in vitro [18]” it was over 58; in the data set “in vitro [19]”, 15; in “in vitro [20]”, over 69.
Take `OCC1=C[C@@H](n2cnc3c(O)ncnc32)[C@H](O)[C@@H]1O`: the EC50 in the data set on Vero [1], in the data set with Vero [2], in the data set on Vero [3], in the data set with Vero [4] and in the data set on Vero [5] was over 100 µg/mL each time. Besides, the IC50 with Vero [6], in the data set on Vero [7], in the data set with Vero [8], with Vero [9] and in the data set with Vero [10] was over 100 µg/mL throughout.
`Nc1ccn([C@@H]2C=C(CO)[C@@H](O)[C@H]2O)c(=O)n1`: the EC50 in the data set with Vero [1] was 0.05 µg/mL (≈ 0.209 µM); with Vero [2], under 0.05 µg/mL; with Vero [3], under 0.05 µg/mL; in the data set with Vero [4], over 100 µg/mL; in the data set with Vero [5] it was 0.04 µg/mL (≈ 0.167 µM). Further, the IC50 in the data set with Vero [6] is 1 µg/mL (≈ 4.18 µM); with Vero [7], 4 µg/mL (≈ 16.7 µM); with Vero [8], over 100 µg/mL; with Vero [9], 30 µg/mL (≈ 125 µM); with Vero [10], 40 µg/mL (≈ 167 µM). Besides, the selectivity ratio in the data set “in vitro [11]” was 0.3; in “in vitro [12]”, 100; in the data set “in vitro [13]”, 300; in “in vitro [14]”, over 166; in “in vitro [15]” it was over 20; in the data set “in vitro [16]”, 210. The selectivity ratio in “in vitro [17]” is over 80; in the data set “in vitro [18]” it was 550; in “in vitro [19]”, over 2000; in “in vitro [20]” it was 1000.
Consider `Nc1ncnc2c1ncn2[C@@H]1C=C(CO)[C@@H](O)[C@H]1O` [NEOPLANOCIN A], for which the EC50 was over 100 µg/mL in the data set on Vero [1]; 0.21 µg/mL (≈ 0.798 µM) in the data set with Vero [2]; 0.03 µg/mL (≈ 0.114 µM) in the data set on Vero [3]; 0.14 µg/mL (≈ 0.532 µM) with Vero [4]; over 100 µg/mL in the data set with Vero [5]. In addition, the IC50 with Vero [6] was 20 µg/mL (≈ 76 µM); in the data set on Vero [7], 57 µg/mL (≈ 217 µM); in the data set with Vero [8], 50 µg/mL (≈ 190 µM); in the data set with Vero [10] it was over 100 µg/mL. For the same compound, the selectivity ratio was 71 in “in vitro [11]”; 360 in the data set “in vitro [12]”; 12 in “in vitro [13]”; 1 in “in vitro [14]”; under 0.2 in the data set “in vitro [15]”; 161 in the data set “in vitro [16]”. Also, the selectivity ratio was 271 in “in vitro [17]”, 230 in “in vitro [18]”, 1670 in the data set “in vitro [19]” and 1 in “in vitro [20]”.

Broadly, the EC50 is the concentration that produces a half-maximal response. High values mean lower potency in that assay, low ones higher potency in that assay. For orientation: IC50 means the midpoint of a concentration-inhibition curve.
